Reference: ChEMBL document CHEMBL1201862, “PubChem BioAssay data set” (2004)
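1) Cells in 96-well plates. 2) Compound, 48 h, 5 concentrations. 3) Linear interpolation between surrounding doses. 4) Unreached endpoint = highest concentration. GI50 = concentration required for 50% inhibition of growth.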 Calls of active or inactive are those of the source. Rule as the data show it: active = GI50 up to about 1.1 µM and inactive = higher.

Key:
Assay in all cases: inhibition of tumour cell growth, NCI panel, 48 h
OVCAR-8 = system: OVCAR-8
786-0 = system: 786-0
SNB-75 = system: SNB-75
K562 = system: K562
M14 = system: M14
HCT-15 = system: HCT-15
SK-MEL-28 = system: SK-MEL-28
SF-268 = system: SF-268
MOLT-4 = system: MOLT-4
LOX IMVI = system: LOX IMVI
NCI-H460 = system: NCI-H460
SK-OV-3 = system: SK-OV-3
SW-620 = system: SW-620
COLO 205 = system: COLO 205
HOP-92 = system: HOP-92
HT-29 = system: HT-29
SF-295 = system: SF-295
MCF7 = system: MCF7
OVCAR-5 = system: OVCAR-5
DU-145 = system: DU-145

| SMILES | GI50 (OVCAR-8) | GI50 (786-0) | GI50 (SNB-75) | GI50 (K562) | GI50 (M14) | GI50 (HCT-15) [µM] | GI50 (SK-MEL-28) | GI50 (SF-268) | GI50 (MOLT-4) | GI50 (LOX IMVI) | GI50 (NCI-H460) | GI50 (SK-OV-3) | GI50 (SW-620) | GI50 (COLO 205) | GI50 (HOP-92) | GI50 (HT-29) | GI50 (SF-295) | GI50 (MCF7) | GI50 (OVCAR-5) | GI50 (DU-145) |
| --- | --- | --- | --- | --- | --- | --- | --- | --- | --- | --- | --- | --- | --- | --- | --- | --- | --- | --- | --- | --- |
| CCOC(=O)C1(Cc2ccc3ccccc3c2)CCCCC(=O)N1 (centres undefined) | 55.5 µM (inactive) | 38.8 µM (inactive) | 0.286 µM (active) | 4.55 µM (inactive) | 39.3 µM (inactive) | 28.8 | 41 µM (inactive) | 49.8 µM (inactive) | 7.35 µM (inactive) | 24.1 µM (inactive) | 25.7 µM (inactive) | 76 µM (inactive) | 27.5 µM (inactive) | 39.1 µM (inactive) | 13.1 µM (inactive) | 30.8 µM (inactive) | 8.89 µM (inactive) | – | – | – |
| C=CCCCCn1c2ccccc2c2c(C)c3cnccc3c(C)c21 | 3.93 µM (inactive) | – | 3.88 µM (inactive) | 3.32 µM (inactive) | – | 6.27 | 9.82 µM (inactive) | 11.3 µM (inactive) | 2.83 µM (inactive) | 7.55 µM (inactive) | 6.64 µM (inactive) | 16.5 µM (inactive) | 4.54 µM (inactive) | 3.96 µM (inactive) | 4.06 µM (inactive) | 7 µM (inactive) | 8.71 µM (inactive) | 7.73 µM (inactive) | 16.9 µM (inactive) | – |
| C1CCC(OCc2nnn3c2CCC3)OC1 (centres undefined) | > 100 µM (inactive) | – | > 100 µM (inactive) | > 100 µM (inactive) | > 100 µM (inactive) | > 100 | > 100 µM (inactive) | – | > 100 µM (inactive) | > 100 µM (inactive) | > 100 µM (inactive) | > 100 µM (inactive) | > 100 µM (inactive) | – | > 100 µM (inactive) | > 100 µM (inactive) | > 100 µM (inactive) | – | > 100 µM (inactive) | – |
| Nc1c(/N=N/c2ccc(-c3ccc(/N=N/c4c(O)ccc5cc(S(=O)(=O)O)cc(S(=O)(=O)O)c45)cc3)cc2)c(S(=O)(=O)O)cc2cc(S(=O)(=O)O)c(/N=N/c3ccccc3)c(O)c12 | > 100 µM (inactive) | – | 35.7 µM (inactive) | > 100 µM (inactive) | – | > 100 | > 100 µM (inactive) | > 100 µM (inactive) | > 100 µM (inactive) | > 69 µM (inactive) | > 100 µM (inactive) | > 100 µM (inactive) | > 100 µM (inactive) | > 100 µM (inactive) | > 69.7 µM (inactive) | > 100 µM (inactive) | > 77.1 µM (inactive) | > 100 µM (inactive) | > 100 µM (inactive) | – |
| CC1=C(C(=O)Nc2cccc(Cl)c2)C(c2ccc([N+](=O)[O-])cc2)C(C(=O)Nc2cccc(Cl)c2)=C(C)N1 | 30.7 µM (inactive) | 22 µM (inactive) | 10.7 µM (inactive) | 24.8 µM (inactive) | 16.6 µM (inactive) | 23.7 | 25.3 µM (inactive) | 27 µM (inactive) | 10.3 µM (inactive) | 14.9 µM (inactive) | 20.1 µM (inactive) | 11.9 µM (inactive) | > 10 µM (inactive) | 34.5 µM (inactive) | 11.5 µM (inactive) | 16.6 µM (inactive) | 23.6 µM (inactive) | – | 48 µM (inactive) | – |
| Cn1cc(C(=O)c2ccccc2)ccc1=O | > 100 µM (inactive) | > 100 µM (inactive) | > 100 µM (inactive) | > 100 µM (inactive) | > 100 µM (inactive) | > 100 | > 100 µM (inactive) | > 100 µM (inactive) | > 100 µM (inactive) | > 100 µM (inactive) | > 100 µM (inactive) | > 100 µM (inactive) | > 100 µM (inactive) | > 100 µM (inactive) | > 100 µM (inactive) | > 100 µM (inactive) | > 100 µM (inactive) | – | > 100 µM (inactive) | – |
| C/C=C/c1cc2c(c(=O)o1)C(=O)[C@@H](O)[C@H](C)O2 | 16.7 µM (inactive) | – | 18.7 µM (inactive) | 8.59 µM (inactive) | – | 11.2 | 15 µM (inactive) | 13 µM (inactive) | 9.71 µM (inactive) | 12.6 µM (inactive) | 21.7 µM (inactive) | 37.6 µM (inactive) | 11 µM (inactive) | 11.4 µM (inactive) | 16.9 µM (inactive) | 14.4 µM (inactive) | 21 µM (inactive) | 4.08 µM (inactive) | 17.2 µM (inactive) | – |
| O=Cc1cccc2ccc3ccccc3c12 | 24.2 µM (inactive) | 17.5 µM (inactive) | 7.35 µM (inactive) | – | 20 µM (inactive) | 11.1 | – | 11.5 µM (inactive) | – | 11.3 µM (inactive) | 21.4 µM (inactive) | 16.5 µM (inactive) | 10.4 µM (inactive) | 18.7 µM (inactive) | – | 12.2 µM (inactive) | 17.1 µM (inactive) | 14.4 µM (inactive) | – | 22.4 µM (inactive) |
